The source of these data is patent publication US8242274B2, “Triazolopyridine kinase inhibitors useful for the treatment of degenerative and inflammatory diseases” (Galapagos NV, priority 2008, dated 2012).

One series relates to MAB model. The series can be described thus: MAB model (collagen antibody-induced arthritis). Format: in vivo, mice. The settings on record: for activity in the MAB model: 30 mg/kg. How it is done: The MAB model allows a rapid assessment of the modulation of an RA-like inflammatory response by therapeutics ([…]. Nature Protocols (2006) 2512-2516: Collagen antibody-induced arthritis). DBA/J mice were injected i.v. with a cocktail of mAbs directed against collagen II. One day later, compound treatment was initiated (vehicle: 10% (v/v) HPβCD). Three days later, mice received an i.p. LPS injection (50 μg/mouse), resulting in a fast onset of inflammation. Compound treatment was continued until 10 days after the mAb injection. Inflammation was read by measuring paw swelling and recording the clinical score of each paw. The cumulative clinical arthritis score of four limbs was presented to show the severity of inflammation. A scoring system is applied to each limb using a scale of 0-4, with 4 being the most severe inflammation. • 0 Symptom free • 1 Mild, but definite redness and swelling of one type of joint such as the ankle or wrist, or apparent redness and swelling limited to individual digits, regardless of the number of affected digits • 2 Moderate redness and swelling of two or more types of joints • 3 Severe redness and swelling of the entire paw including digits • 4 Maximally inflamed limb with involvement of multiple joints

For series [1], the target named is T1, Recombinant human TYK2 catalytic domain (Homo sapiens, UniProt P29597).
T1 construct: Recombinant human TYK2 catalytic domain (amino acids 871-1187; catalog number 08-147); purchased Carna biosciences 08-147
T1 sequence (P29597 871-1187): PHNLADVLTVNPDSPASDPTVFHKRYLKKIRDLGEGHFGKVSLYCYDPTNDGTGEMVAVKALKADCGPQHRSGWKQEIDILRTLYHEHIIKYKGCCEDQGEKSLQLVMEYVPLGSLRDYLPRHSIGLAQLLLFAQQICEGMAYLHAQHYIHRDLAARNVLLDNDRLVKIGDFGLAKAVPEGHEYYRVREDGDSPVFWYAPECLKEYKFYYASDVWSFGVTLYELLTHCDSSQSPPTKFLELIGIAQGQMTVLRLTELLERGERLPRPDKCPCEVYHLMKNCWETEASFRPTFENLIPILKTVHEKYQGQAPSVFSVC
In words: TYK2 inhibition assay. Format: biochemical. Particulars: semi-quantitative score. As to the method:
Recombinant human TYK2 catalytic domain (amino acids 871-1187; catalog number 08-147) was purchased from Carna biosciences. 5 ng of TYK2 was incubated with 12.5 μg polyGT substrate (Sigma catalog number P0275) in kinase reaction buffer (25 mM Hepes pH 7.5, 100 mM NaCl, 0.2 mM Na3VO4, 0.1% NP-40, 0.1 μM non-radioactive ATP, 0.125 μCi 33P-gamma-ATP (GE Healthcare, catalog number AH9968) final concentrations) with or without 5 μL containing test compound or vehicle (DMSO, 1% final concentration), in a total volume of 25 μL, in a polypropylene 96-well plate (Greiner, V-bottom). After 90 min at 30° C., reactions were stopped by adding of 25 μL/well of 150 mM phosphoric acid. All of the terminated kinase reaction was transferred to prewashed (75 mM phosphoric acid) 96 well filter plates (Perkin Elmer catalog number 6005177) using a cell harvester (Perkin Elmer). Plates were washed 6 times with 300 μL per well of a 75 mM phosphoric acid solution and the bottom of the plates was sealed. 40 μL/well of Microscint-20 was added, the top of the plates was sealed and readout was performed using the Topcount (Perkin Elmer). Kinase activity was calculated by subtracting counts per minute (cpm) obtained in the presence of a positive control inhibitor (10 μM staurosporine) from cpm obtained in the presence of vehicle. The ability of a test compound to inhibit this activity was determined as: Percentage inhibition=((cpm determined for sample with test compound present−cpm determined for sample with positive control inhibitor) divided by (cpm determined in the presence of vehicle−cpm determined for sample with positive control inhibitor))*100%.
Dose dilution series were prepared for the compounds enabling the testing of dose-response effects in the TYK2 assay and the calculation of the IC50 for each compound. Each compound was routinely tested at concentration of 20 μM followed by a 1/3 serial dilution, 8 points (20 μM-6.67 μM-2.22 μM-740 nM-247 nM-82 nM-27 nM-9 nM) in a final concentration of 1% DMSO.

In a further series the target is T2, hERG channels (Homo sapiens, UniProt Q12809).
T2 construct: expressed in transfected cells
The series can be described thus: hERG patch clamp assay, liability for QT prolongation. The format is cell-based. How it is done: Electrodes were manufactured from GC150TF pipette glass (Harvard), resistance was between 2 and 3 MΩ.
IC50 and IC20 values were calculated for each compound tested. The fold difference between the IC20 and the unbound Cmax concentrations of the test compound obtained at relevant therapeutic doses as determined by results obtained from the rat CIA model was calculated.
For the concentration response curves, peak tail current amplitude was measured during the voltage step to −50 mV.
On the technique in general: The hERG channel carries a current that helps repolarise heart muscle cells.

The nature of another series: in vivo. The settings on record: male, Sprague-Dawley, rat, po. How it is done: A 7-day oral toxicity study with test compounds was performed in Sprague-Dawley male rats to assess their toxic potential and toxicokinetics, at daily doses of 100, 300 and 500 mg/kg/day, by gavage, at the constant dosage-volume of 5 mL/kg/day.
The test compounds were formulated in 30% (v/v) HPβCD in purified water. Each group included 5 principal male rats as well as 3 satellite animals for toxicokinetics. A fourth group was given 30% (v/v) HPβCD in water only, at the same frequency, dosage volume and by the same route of administration, and acted as the vehicle control group.
Compounds 37 and 176 were tested in this protocol.

T2 sequence (Q12809 whole entry): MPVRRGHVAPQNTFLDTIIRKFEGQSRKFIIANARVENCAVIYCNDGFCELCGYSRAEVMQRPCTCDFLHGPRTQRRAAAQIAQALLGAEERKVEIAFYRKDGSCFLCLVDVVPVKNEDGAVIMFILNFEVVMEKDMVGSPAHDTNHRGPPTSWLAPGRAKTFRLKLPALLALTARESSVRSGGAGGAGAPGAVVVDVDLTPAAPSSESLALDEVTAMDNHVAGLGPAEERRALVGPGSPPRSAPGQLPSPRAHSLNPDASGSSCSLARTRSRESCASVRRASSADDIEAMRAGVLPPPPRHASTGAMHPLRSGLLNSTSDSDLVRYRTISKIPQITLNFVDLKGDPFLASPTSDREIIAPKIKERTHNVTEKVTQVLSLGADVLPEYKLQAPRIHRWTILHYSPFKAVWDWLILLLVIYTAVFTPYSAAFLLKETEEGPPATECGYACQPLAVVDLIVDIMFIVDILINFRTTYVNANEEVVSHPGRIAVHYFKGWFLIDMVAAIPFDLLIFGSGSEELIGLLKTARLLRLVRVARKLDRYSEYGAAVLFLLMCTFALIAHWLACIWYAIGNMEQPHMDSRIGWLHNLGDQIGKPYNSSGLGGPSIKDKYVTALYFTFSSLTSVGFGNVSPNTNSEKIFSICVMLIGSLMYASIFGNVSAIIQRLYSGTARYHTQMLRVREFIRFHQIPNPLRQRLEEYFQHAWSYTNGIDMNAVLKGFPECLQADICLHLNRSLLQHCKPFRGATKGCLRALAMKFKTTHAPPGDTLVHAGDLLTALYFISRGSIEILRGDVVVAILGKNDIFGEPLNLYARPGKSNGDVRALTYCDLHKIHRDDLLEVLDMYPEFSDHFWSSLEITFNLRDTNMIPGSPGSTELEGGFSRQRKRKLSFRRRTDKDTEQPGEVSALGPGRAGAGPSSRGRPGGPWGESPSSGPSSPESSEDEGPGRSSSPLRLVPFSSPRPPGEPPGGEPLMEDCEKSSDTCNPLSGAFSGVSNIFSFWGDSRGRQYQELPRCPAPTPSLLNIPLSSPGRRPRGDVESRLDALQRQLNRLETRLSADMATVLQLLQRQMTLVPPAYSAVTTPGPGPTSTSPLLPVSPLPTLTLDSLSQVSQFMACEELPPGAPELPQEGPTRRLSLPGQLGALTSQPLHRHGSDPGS

By IC50 is commonly meant the midpoint of a concentration-inhibition curve. As for `O=C(Nc1nc2cccc(-c3ccc(OCc4cccnc4)cc3)n2n1)C1CC1` [Compound 36, N-(5-(4-(pyridin-3-ylmethoxy)phenyl)-[1,2,4]triazolo[1,5-a]pyridin-2-yl)cyclopropanecarboxamide], the “activity in the MAB model” value with MAB model was “active”. For the same compound, the IC50 in series [1] is 101 to 500 nM.

As usually defined, the NOAEL is the highest dose or exposure tested at which no adverse effect was seen. As for `O=C(Nc1nc2cccc(-c3ccc(OCc4ccccn4)cc3)n2n1)C1CC1` [Compound 37, N-(5-(4-(pyridin-2-ylmethoxy)phenyl)-[1,2,4]triazolo[1,5-a]pyridin-2-yl)cyclopropanecarboxamide], in the series with MAB model, the “activity in the MAB model” value was “active”. In addition, the “Fold difference between the hERG IC20 and the unbound Cmax” value on hERG channels (Dose 10 (rat CIA model)) was 7. This compound came in with an NOAEL at 7 day in the series “in vivo” of 500 mg/kg. For the same compound, in series [1], the IC50 lay in the range of 501 to 1000 nM.

As for `O=C(Nc1nc2cccc(-c3ccc(NCc4ccccc4)cc3)n2n1)C1CC1` [Compound 72, N-(5-(4-(benzylamino)phenyl)-[1,2,4]triazolo[1,5-a]pyridin-2-yl)cyclopropanecarboxamide], the IC50 in series [1] is > 1000 nM.

For the compound `CC(=O)Nc1ccc(COc2ccc(-c3cccc4nc(NC(=O)C5CC5)nn34)cc2)cc1` [Compound 92, N-(5-(4-(4-acetamidobenzyloxy)phenyl)-[1,2,4]triazolo[1,5-a]pyridin-2-yl)cyclopropanecarboxamide], the IC50 in series [1] is > 1000 nM.

As to `N#Cc1ccc(COc2ccc(-c3cccc4nc(NC(=O)C5CC5)nn34)cc2)cn1` [Compound 176, N-(5-(4-((6-cyanopyridin-3-yl)methoxy)phenyl)-[1,2,4]triazolo[1,5-a]pyridin-2-yl)cyclopropanecarboxamide], the figures for the “clinical score, MAB model” value in the series on MAB model (10 mg/kg p.o.) and in the series with MAB model (30 mg/kg p.o.) were “reduced the clinical score” and “reduced the clinical score with statistical significance”, respectively. In addition, the “inflammation, MAB model” value with MAB model (10 mg/kg p.o.) and in the series on MAB model (30 mg/kg p.o.) was “significantly reduced inflammation” throughout. Besides, the “Fold difference between the hERG IC20 and the unbound Cmax” value on hERG channels (Dose 3 (rat CIA model)) was 137; on hERG channels (Dose 10 (rat CIA model)) it was 82. Besides, the “potential for QT prolongation” value at hERG channels (compared to Compound 37) was “much lower potential QT prolongation issue”. The same compound gave an NOAEL at 7 day in “in vivo” of 500 mg/kg. For the same compound, the IC50 in series [1] lay within 1 to 100 nM.
